Source: patent US20120100071A1, “SYNTHESIS AND USE OF RADIOLABELLED INSULIN ANALOGUES” (priority 2009, published 2012)

Test system: Akt1 phosphorylation (S473) in H4IIE cells
Assay: Akt1 activation, phospho-Akt1 (Ser473) ELISA
Type: cell-based
Details: FIG. 10c
Description: The insulin receptor autophosphorylation was assessed through the use of an enzyme-linked immunosorbant assay (ELISA). […] Finally, to probe the downstream signaling resulting from insulin binding, a second ELISA experiment was performed to monitor stimulation of Akt phosphorylation (S473).
Confluent H4IIE cells were serum deprived for 4 hours in […] β-mercaptoethanol and 0.25% bovine serum albumin. […] Cells were lysed in 0.5 ml 1× Cell Lysis Buffer (Cell Signaling, #7160) and cells broken open by brief sonication. Lysates were collected and centrifuged for 10 minutes at 14,000 rpm. Supernatants were recovered, diluted 1:1 with Sample Diluent, and phospho-Akt1 was quantitated in 100 μL of each diluted supernatant using the PathScan phospho-Akt1 (Ser473) ELISA (Cell Signaling, #7160).

B^1-[Re(CO)3{bis(2-pyridylmethyl)pentanoyl-6-aminohexanoyl)}]insulin [compound 6]
Akt phosphorylation (S473) response compared to unmodified human insulin: not significantly different
